Assay results from US7795378B2, “Peptide compositions for treatment of sexual dysfunction” (Palatin Technologies, Inc., priority 2002, dated 2010).
*1 amine or outer side, *2 acyl side, *3 side chain or, on linkers, in order; H or OH if unused. Where a SMILES comes first, the peptide text is derived from it. [ ]: non-standard residue; d: D form. The star is where a group is joined. Arg(NO2) = N=C(NCCC[C@H](N)C(=O)O)N[N+](=O)[O-]; Ser(Bzl) = O=C([C@H](COCc1ccccc1)N[*:1])[*:2]; dPhe(4-Cl) = N[C@H](Cc1ccc(Cl)cc1)C(=O)O; d2Nal = N[C@H](Cc1ccc2ccccc2c1)C(=O)O; Cit = NC(=O)NCCC[C@H](N)C(=O)O; Orn = NCCC[C@H](N)C(=O)O; Ahp = NCCCCCCC(=O)O; Bn = c1ccc(C*)cc1

Assays:
[1] = molecular target: T1, MC1-R (B16-F1 mouse melanoma cells) (Mus musculus, UniProt Q01727); assay: Competitive inhibition binding assay with 125I-NDP-MSH, MC1 receptor; settings: 10 μM peptide, 0 assigned when raw inhibition between −10% and 10%, read-out: % Inhibition at 10 μM concentration at MC1-Receptor
T1 construct: B-16 mouse melanoma cells (containing MC1-R); endogenous in cells; host or cells: B16-F1 mouse melanoma cells (membranes)
T1 sequence (Q01727 whole entry): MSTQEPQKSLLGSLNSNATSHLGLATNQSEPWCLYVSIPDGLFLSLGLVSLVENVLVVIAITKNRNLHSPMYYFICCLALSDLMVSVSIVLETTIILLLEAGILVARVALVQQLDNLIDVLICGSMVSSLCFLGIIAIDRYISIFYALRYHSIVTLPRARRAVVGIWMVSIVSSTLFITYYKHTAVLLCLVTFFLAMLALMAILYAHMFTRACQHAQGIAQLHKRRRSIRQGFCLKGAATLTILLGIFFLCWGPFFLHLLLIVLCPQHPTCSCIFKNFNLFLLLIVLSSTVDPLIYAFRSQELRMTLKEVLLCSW
Procedure: (§1) Competitive inhibition binding assay was conducted using membranes prepared from hMC3-R, hMC4-R, hMC5-R, and B-16 mouse melanoma cells (containing MC1-R) using 0.4 nM ^125I-NDP-MSH (0.2 nM for MCL-R) (New England Nuclear, Boston, Mass., USA) in 50 mM HEPES buffer containing 1 mM MgCl2, 2 mM CaCl2, and 5 mM KCl, at pH 7.2. The assay tube also contained a chosen concentration of the peptides of this invention, for determining inhibition of the binding of ^125I-NDP-MSH to its receptor. Non-specific binding was measured by complete inhibition of binding of ^125I-NDP-MSH in the assay in the presence of 1 μM α-MSH. Incubation was for 90 minutes at 37° C., after which the assay mixture was filtered and the membranes washed three times with ice cold buffer. The filter was dried and counted in a gamma counter for remaining radioactivity bound to the membranes. 100% specific binding was defined as the difference in radioactivity (cpm) bound to cell membranes in the absence and presence of 1 μM α-MSH. The cpm obtained in the presence of peptides of this invention were normalized with respect to 100% specific binding to determine the percent inhibition of ^125I-NDP-MSH binding. Each assay was conducted in triplicate.
(§2) The binding of the peptides of Examples 1 to 13, inclusive, to melanocortin receptors was evaluated, with results shown on Table 1. Relative binding was determined by competitive inhibition using an α-MSH analog, iodinated NDP-MSH. B16-Fl mouse melanoma cells were used as the source of MC1 receptors and HEK 293 cells, transfected with human melanocortin receptor sequences, were used as the source of MC3, MC4 and MC5 receptors. A standard competitive binding assay protocol as described above was followed, using ^125I-NDP-MSH as the radioligand. A “0” percent inhibition was assigned when the raw percent inhibition, as an average of at least triplicate measures, was between −10% and 10%; in the majority of instances, the raw percent inhibition was between −10% and 0% inhibition.

[2] = molecular target: T2, hMC3-R (Homo sapiens, UniProt P41968); assay: Competitive inhibition binding assay with 125I-NDP-MSH, MC3 receptor; settings: 10 μM peptide, 0 assigned when raw inhibition between −10% and 10%, read-out: % Inhibition at 10 μM concentration at MC3-Receptor
T2 construct: expressed in transfected cells; host or cells: HEK 293 cells (membranes)
T2 sequence (P41968 whole entry): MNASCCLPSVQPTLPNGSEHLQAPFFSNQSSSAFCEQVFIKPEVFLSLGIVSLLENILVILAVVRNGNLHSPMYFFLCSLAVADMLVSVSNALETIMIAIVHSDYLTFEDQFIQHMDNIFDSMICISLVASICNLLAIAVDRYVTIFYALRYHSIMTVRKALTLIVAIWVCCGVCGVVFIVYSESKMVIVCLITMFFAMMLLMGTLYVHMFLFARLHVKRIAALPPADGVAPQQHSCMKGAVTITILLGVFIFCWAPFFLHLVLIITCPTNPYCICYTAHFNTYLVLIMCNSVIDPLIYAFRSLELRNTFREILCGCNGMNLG
Procedure: as §1, §2

[3] = molecular target: T3, hMC4-R (Homo sapiens, UniProt P32245); assay: Competitive inhibition binding assay with 125I-NDP-MSH, MC4 receptor; settings: 10 μM peptide, 0 assigned when raw inhibition between −10% and 10%, read-out: % Inhibition at 10 μM concentration at MC4-Receptor
T3 construct: expressed in transfected cells
T3 sequence (P32245 whole entry): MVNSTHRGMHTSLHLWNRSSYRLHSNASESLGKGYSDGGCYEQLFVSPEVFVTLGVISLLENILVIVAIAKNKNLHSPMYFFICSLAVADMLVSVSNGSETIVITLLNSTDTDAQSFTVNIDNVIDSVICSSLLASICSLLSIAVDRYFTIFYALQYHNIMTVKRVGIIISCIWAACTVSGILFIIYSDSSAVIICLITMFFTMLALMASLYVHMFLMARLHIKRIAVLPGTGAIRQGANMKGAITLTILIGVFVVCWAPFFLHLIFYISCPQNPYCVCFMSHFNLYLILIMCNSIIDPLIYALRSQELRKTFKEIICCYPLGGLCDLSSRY
Procedure: as §1, §2

[4] = molecular target: T4, hMC5-R (Homo sapiens, UniProt P33032); assay: Competitive inhibition binding assay with 125I-NDP-MSH, MC5 receptor; settings: 10 μM peptide, 0 assigned when raw inhibition between −10% and 10%, read-out: % Inhibition at 10 μM concentration at MC5-Receptor
T4 construct: expressed in transfected cells; host or cells: HEK 293 cells (membranes)
T4 sequence (P33032 whole entry): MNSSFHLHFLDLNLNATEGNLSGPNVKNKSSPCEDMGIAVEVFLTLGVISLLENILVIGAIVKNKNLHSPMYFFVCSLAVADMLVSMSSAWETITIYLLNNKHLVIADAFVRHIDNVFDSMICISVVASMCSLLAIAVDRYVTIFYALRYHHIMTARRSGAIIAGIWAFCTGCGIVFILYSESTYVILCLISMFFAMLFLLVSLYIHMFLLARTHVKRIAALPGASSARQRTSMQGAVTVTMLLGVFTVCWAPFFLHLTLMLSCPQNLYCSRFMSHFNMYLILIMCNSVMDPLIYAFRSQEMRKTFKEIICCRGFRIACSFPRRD
Procedure: as §1, §2

[5] = test system: male Sprague-Dawley rats; assay: Induction of penile erections in male rats; assay type: in vivo, rat
Procedure: The ability of the peptides of Examples 1 to 13 to induce penile erection in male rats was evaluated. Male Sprague-Dawley rats weighing 200-250 g were kept on a 12 hour on/off light cycle with food and water ad libitum. All behavioral studies were performed between 10 a.m. and 5 p.m. Groups of 4-8 rats were treated with peptides at a variety of doses via intravenous administration. Immediately after administration, rats were placed into individual polystyrene cages (27 cm long, 16 cm wide, and 25 cm high) for behavioral observation.
The efficacious dose of NH2—(CH2)6CO-Ser(Bzl)-D-Phe(4-Cl)-Arg, made as in Example 1 above, to induce penile erection in Sprague Dawley rats by intravenous dosing and oral administration was determined. […] NH2—(CH2)6CO-Ser(Bzl)-D-Phe(4-Cl)-Arg was efficacious at doses as low as 0.1 to 1 μg/kg of body weight when administered by oral means, and at doses lower than 0.001 μg/kg of body weight when administered by intravenous means.
The efficacious dose of NH2—(CH2)6—CO-Ser(Bzl)-D-Phe(4-Cl)-Arg(NO2), made as in Example 5 above, to induce penile erection in Sprague Dawley rats by intravenous dosing was determined. […] It was determined that NH2—(CH2)6—CO-Ser(Bzl)-D-Phe(4-Cl)-Arg(NO2) was efficacious at doses as low as 0.001 to 10 μg/kg of body weight when administered by intravenous means, with efficacy determined by induction of penile erection in 100% of animals. The optimal dose response was at 1 μg/kg of body weight. FIG. 1 depicts the dose response profile, with the error bars depicting standard deviation where n (the number of animals) is between 8 and 19, depending on the dose point.
The efficacious dose of NH2—(CH2)6—CO-Ser(Bzl)-D-Phe(4-Cl)-Arg(NO2), made as in Example 5 above, to induce penile erection in Sprague Dawley rats by intranasal administration using a micropipetor to deliver 25 μL of solution into one nostril was determined. […] It was determined that NH2—(CH2)6—CO-Ser(Bzl)-D-Phe(4-Cl)-Arg(NO2) was efficacious at doses between 0.01 μg/kg and 100 μg/kg of body weight when administered by intranasal means. The peak dose response was at an intranasal dose of 0.1 μg/kg of body weight.

[6] = test system: male rats; assay: Induced penile erections after pre-administration of MC4-R antagonist SHU9119; assay type: in vivo, rat; settings: SHU9119 approximately 5 minutes before peptide
Excerpt: It is known that MC4-R antagonists inhibit the erectile activity of MC4-R agonists in a dose dependent manner. Such antagonists include SHU9119, a nonselective melanocortin antagonist of the formula Ac-Nle-cyc/o(-Asp-His-D-Nal(2′)-Arg-Trp-Lys)-NH2 (Hruby V. J., Lu D., Sharma S. D., et al. Cyclic lactam alpha-melanotropin analogues of Ac-Nle^4-cyclo[Asp^5, D-Phe^7, Lys^10]-NH2 with bulky aromatic amino acids at position 7 show high antagonist potency and selectivity at specific melanocortin receptors. J Med Chem 38:3454-3461 (1995)). Antagonists such as SHU9119 are known to inhibit MT-II and other known melanocortin receptor-specific agonists that induce erectile activity. SHU9119 was administered to male rats approximately 5 minutes before administration of either NH2—(CH2)6CO-Ser(Bzl)-D-Phe(4-Cl)-Arg or NH2—(CH2)6CO-Ser(Bzl)-D-Phe(4-Cl)-Arg-Trp-NH2, with Ac-Nle-cyc/o(Asp-His-D-Phe-Arg-Trp-Lys)-OH, a known MC4-R agonist, as a positive control.

CC(=O)N[C@@H](COCc1ccccc1)C(=O)N[C@H](Cc1ccc(Cl)cc1)C(=O)N[C@@H](CCCNC(=N)N)C(=O)O [Ac-Ser(Bzl)-D-Phe(4-Cl)-Arg] (Ac-Ser(Bn)-[dPhe(4-Cl)]-Arg-OH)
inhibition at 10 µM [1]: 0% | inhibition at 10 µM [2]: 0% | inhibition at 10 µM [3]: 0% | inhibition at 10 µM [4]: 0%

C[C@H](NC(=O)CCCCCCN)C(=O)N[C@H](Cc1ccc(Cl)cc1)C(=O)N[C@@H](CCCNC(=N)N)C(=O)O [NH2—(CH2)6—CO-Ala-D-Phe(4-Cl)-Arg] (H-[Ahp]A[dPhe(4-Cl)]R-OH)
inhibition at 10 µM [1]: 0% | inhibition at 10 µM [2]: 0% | inhibition at 10 µM [3]: 0% | inhibition at 10 µM [4]: 0%

C[C@@H](NC(=O)[C@H](COCc1ccccc1)NC(=O)CCCCCCN)C(=O)N[C@@H](CCCNC(=N)N)C(=O)O [NH2—(CH2)6—CO-Ser(Bzl)-D-Ala-Arg] (H-[Ahp]S(Bn)[dA]R-OH)
inhibition at 10 µM [1]: 0% | inhibition at 10 µM [2]: 0% | inhibition at 10 µM [3]: 0% | inhibition at 10 µM [4]: 0%

N=C(N)NCCC[C@H](NC(=O)[C@@H](Cc1ccc2ccccc2c1)NC(=O)[C@H](COCc1ccccc1)NC(=O)CCCCCCN)C(N)=O [NH2—(CH2)6—CO-Ser(Bzl)-D-Nal 2-Arg-NH2] (H-[Ahp]S(Bn)[d2Nal]R-NH2)
inhibition at 10 µM [1]: 0% | inhibition at 10 µM [2]: 0% | inhibition at 10 µM [3]: 0% | inhibition at 10 µM [4]: 0%

N=C(N)NCCC[C@H](NC(=O)[C@@H](Cc1ccc2ccccc2c1)NC(=O)[C@H](COCc1ccccc1)NC(=O)CCCCCCN)C(=O)O [NH2—(CH2)6—CO-Ser(Bzl)-D-Nal 2-Arg] (H-[Ahp]S(Bn)[d2Nal]R-OH)
inhibition at 10 µM [1]: 0% | inhibition at 10 µM [2]: 0% | inhibition at 10 µM [3]: 0% | inhibition at 10 µM [4]: 0%

C[C@H](NC(=O)[C@@H](Cc1ccc(Cl)cc1)NC(=O)[C@H](COCc1ccccc1)NC(=O)CCCCCCN)C(=O)O [NH2—(CH2)6—CO-Ser(Bzl)-D-Phe(4-Cl)-Ala] (H-[Ahp]S(Bn)[dPhe(4-Cl)]A-OH)
inhibition at 10 µM [1]: 0% | inhibition at 10 µM [2]: 0% | inhibition at 10 µM [3]: 0% | inhibition at 10 µM [4]: 0%

NCCCCCCC(=O)N[C@@H](COCc1ccccc1)C(=O)N[C@H](Cc1ccc(Cl)cc1)C(=O)N[C@@H](CCCNC(N)=N[N+](=O)[O-])C(=O)O [NH2—(CH2)6—CO-Ser(Bzl)-D-Phe(4-Cl)-Arg(NO2)] (H-[Ahp]S(Bn)[dPhe(4-Cl)][Arg(NO2)]-OH)
inhibition at 10 µM [1]: 0% | inhibition at 10 µM [2]: 0% | inhibition at 10 µM [3]: 0% | inhibition at 10 µM [4]: 0% | animals with induction of penile erection at efficacious doses ([5]; intravenous, 0.001 to 10 μg/kg): 100% | peak (optimal) dose response, intranasal ([5]; male Sprague Dawley rats): 0.1 µg/kg | peak (optimal) dose response, intranasal ([5]; male Sprague Dawley rats, listed as NH2—(CH2)6Co-Ser(Bzl)-D-Phe(4-Cl)-Arg(NO2)): about 0.1 μg/kg | optimal dose response, intravenous ([5]; male Sprague Dawley rats, intravenous): 1 µg/kg

N=C(N)NCCC[C@H](NC(=O)[C@@H](Cc1ccc(Cl)cc1)NC(=O)[C@H](COCc1ccccc1)NC(=O)CCCCCCN)C(N)=O [NH2—(CH2)6—CO-Ser(Bzl)-D-Phe(4-Cl)-Arg-NH2] (H-[Ahp]S(Bn)[dPhe(4-Cl)]R-NH2)
inhibition at 10 µM [1]: 0% | inhibition at 10 µM [2]: 0% | inhibition at 10 µM [3]: 0% | inhibition at 10 µM [4]: 0%

NCCCCCCC(=O)N[C@@H](COCc1ccccc1)C(=O)N[C@H](Cc1ccc(Cl)cc1)C(=O)N[C@@H](CCCNC(N)=O)C(=O)O [NH2—(CH2)6—CO-Ser(Bzl)-D-Phe(4-Cl)-Cit] (H-[Ahp]S(Bn)[dPhe(4-Cl)][Cit]-OH)
inhibition at 10 µM [1]: 0% | inhibition at 10 µM [2]: 0% | inhibition at 10 µM [3]: 0% | inhibition at 10 µM [4]: 0%

NCCCCCCC(=O)N[C@@H](COCc1ccccc1)C(=O)N[C@H](Cc1ccc(Cl)cc1)C(=O)N[C@@H](CCCCN)C(=O)O [NH2—(CH2)6—CO-Ser(Bzl)-D-Phe(4-Cl)-Lys] (H-[Ahp]S(Bn)[dPhe(4-Cl)]K-OH)
inhibition at 10 µM [1]: 0% | inhibition at 10 µM [2]: 0% | inhibition at 10 µM [3]: 0% | inhibition at 10 µM [4]: 0%

NCCCCCCC(=O)N[C@@H](COCc1ccccc1)C(=O)N[C@H](Cc1ccc(Cl)cc1)C(=O)N[C@@H](CCCN)C(=O)O [NH2—(CH2)6—CO-Ser(Bzl)-D-Phe(4-Cl)-Orn] (H-[Ahp]S(Bn)[dPhe(4-Cl)][Orn]-OH)
inhibition at 10 µM [1]: 0% | inhibition at 10 µM [2]: 0% | inhibition at 10 µM [3]: 0% | inhibition at 10 µM [4]: 0%

N=C(N)NCCC[C@H](NC(=O)[C@@H](Cc1ccc(Cl)cc1)NC(=O)[C@@H](N)COCc1ccccc1)C(=O)O [Ser(Bzl)-D-Phe(4-Cl)-Arg] (H-Ser(Bn)-[dPhe(4-Cl)]-Arg-OH)
inhibition at 10 µM [1]: 0% | inhibition at 10 µM [2]: 0% | inhibition at 10 µM [3]: 0% | inhibition at 10 µM [4]: 0%

NH2—(CH2)6CO-Ser(Bzl)-D-Phe(4-Cl)-Arg-Trp-NH2 ({NH2‑(CH2)6‑CO}-[Ser(Bzl)][dPhe(4-Cl)]RW-NH2)
effect of SHU9119 pre-administration on induced erections [6]: resulted in erections at a rate equivalent to that obtained without pre-administration of SHU9119
